pKi: −log10 of the molar value.
Experiments:
Carbonic anhydrase 9 = Carbonic anhydrase 9 (Homo sapiens, UniProt Q16790)
Description: Inhibition of human recombinant carbonic anhydrase-9 preincubated for 10 mins by stopped-flow CO2 hydration assay

Carbonic anhydrase 12 = Carbonic anhydrase 12 (Homo sapiens, UniProt O43570); assay: Inhibition of human recombinant carbonic anhydrase-12 preincubated for 10 mins by stopped-flow CO2 hydration assay
Sequence of Carbonic anhydrase 12 (O43570 whole entry): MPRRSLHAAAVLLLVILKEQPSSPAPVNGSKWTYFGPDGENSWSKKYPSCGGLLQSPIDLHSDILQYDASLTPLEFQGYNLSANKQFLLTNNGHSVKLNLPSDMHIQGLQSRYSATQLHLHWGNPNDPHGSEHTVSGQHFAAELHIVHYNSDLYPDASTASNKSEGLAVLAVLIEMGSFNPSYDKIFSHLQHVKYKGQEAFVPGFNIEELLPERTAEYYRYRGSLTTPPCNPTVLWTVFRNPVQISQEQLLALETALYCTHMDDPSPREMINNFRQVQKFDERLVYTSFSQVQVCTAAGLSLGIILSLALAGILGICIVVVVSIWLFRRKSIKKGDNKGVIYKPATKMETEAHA

pKi (Carbonic anhydrase 9) | pKi (Carbonic anhydrase 12) | Compound
8.02 |  | COc1ccc(/C=C/C(=O)Nc2ccc(S(N)(=O)=O)cc2)c(OC)c1
7.69 |  | CC(C)Oc1ccc(/C=C/C(=O)Nc2ccc(S(N)(=O)=O)cc2)cc1
8.28 |  | COc1ccc(/C=C/C(=O)Nc2ccc(S(N)(=O)=O)cc2)cc1
7.95 |  | COc1ccc(/C=C/C(=O)Nc2ccc(S(N)(=O)=O)cc2)c(F)c1
6.90 |  | COc1cc(/C=C/C(=O)Nc2ccc(S(N)(=O)=O)cc2)cc(OC)c1OC
8.74 | 8.34 | NS(=O)(=O)c1ccc(NC(=O)/C=C/c2ccccc2OC(F)F)cc1
8.03 |  | COc1ccc(/C=C/C(=O)Nc2ccc(S(N)(=O)=O)cc2)cc1OC

Continued, molecule first:

Compound | pKi (Carbonic anhydrase 9) | pKi (Carbonic anhydrase 12)
N#Cc1ccc(/C=C/C(=O)Nc2ccc(S(N)(=O)=O)cc2)cc1 | 8.10 | 
NS(=O)(=O)c1ccc(NC(=O)/C=C/c2cccc(F)c2)cc1 | 8.70 | 
NS(=O)(=O)c1ccc(NC(=O)/C=C/c2ccc(F)cc2)cc1 | 8.62 | 
NS(=O)(=O)c1ccc(NC(=O)/C=C/c2cccc(C(F)(F)F)c2)cc1 | 7.94 | 
NS(=O)(=O)c1ccc(NC(=O)/C=C/c2ccc(F)c(F)c2)cc1 | 6.82 | 
NS(=O)(=O)c1ccc(NC(=O)/C=C/c2ccc(OC(F)(F)F)cc2)cc1 | 8.31 | 
NS(=O)(=O)c1ccc(NC(=O)/C=C/c2cc(Cl)cc(Cl)c2)cc1 | 6.64 | 
NS(=O)(=O)c1ccc(NC(=O)/C=C/c2ccc(Cl)cc2)cc1 | 7.90 | 
NS(=O)(=O)c1ccc(NC(=O)/C=C/c2ccc(C(F)(F)F)cc2)cc1 | 8.62 | 
